According to patent US7528138B2, “Pyrazolo[1,5-a]pyrimidines useful as inhibitors of protein kinases” (Vertex Pharmaceuticals Incorporated, priority 2004, dated 2009):
pKi: −log10 of the molar value.

Tests used:
[1] = target: T1, JAK3 (Homo sapiens, UniProt P52333); assay: JAK3 Inhibition Assay, 33P incorporation; type: biochemical; conditions: enzyme inhibition data (Ki), Table 11
T1 sequence (P52333 1-1124): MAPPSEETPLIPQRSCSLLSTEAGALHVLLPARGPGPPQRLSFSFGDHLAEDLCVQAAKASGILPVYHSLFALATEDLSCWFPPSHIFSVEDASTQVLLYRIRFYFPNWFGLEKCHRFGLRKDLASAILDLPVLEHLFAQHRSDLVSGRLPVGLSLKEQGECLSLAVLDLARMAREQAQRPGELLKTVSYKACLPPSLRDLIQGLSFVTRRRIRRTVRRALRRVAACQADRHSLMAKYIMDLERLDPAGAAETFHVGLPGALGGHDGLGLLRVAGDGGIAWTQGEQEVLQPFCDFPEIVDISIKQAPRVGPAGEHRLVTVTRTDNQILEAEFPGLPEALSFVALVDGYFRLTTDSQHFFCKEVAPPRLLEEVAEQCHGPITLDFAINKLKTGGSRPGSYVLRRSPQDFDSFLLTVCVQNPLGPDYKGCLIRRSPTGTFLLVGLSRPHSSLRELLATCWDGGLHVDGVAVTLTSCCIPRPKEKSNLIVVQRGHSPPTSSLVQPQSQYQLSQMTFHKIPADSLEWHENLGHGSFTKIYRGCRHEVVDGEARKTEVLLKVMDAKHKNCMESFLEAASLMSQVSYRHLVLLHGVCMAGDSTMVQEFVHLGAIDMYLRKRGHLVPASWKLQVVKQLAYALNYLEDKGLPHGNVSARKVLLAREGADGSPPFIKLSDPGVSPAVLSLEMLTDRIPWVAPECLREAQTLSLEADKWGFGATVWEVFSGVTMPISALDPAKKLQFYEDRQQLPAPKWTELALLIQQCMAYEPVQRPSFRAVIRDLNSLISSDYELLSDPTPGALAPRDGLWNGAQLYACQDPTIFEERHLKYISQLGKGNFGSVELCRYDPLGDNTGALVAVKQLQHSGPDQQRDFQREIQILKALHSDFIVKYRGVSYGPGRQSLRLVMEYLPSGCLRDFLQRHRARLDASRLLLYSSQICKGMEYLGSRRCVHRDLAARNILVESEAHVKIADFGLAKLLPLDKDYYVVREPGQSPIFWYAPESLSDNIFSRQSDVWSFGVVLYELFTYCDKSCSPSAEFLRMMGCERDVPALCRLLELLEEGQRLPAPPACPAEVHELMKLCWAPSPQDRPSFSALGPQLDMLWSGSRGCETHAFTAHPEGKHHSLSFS
Outline: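 Recombinant JAK3 at 1 nM in HEPES pH 7.4 buffer with 10 mM MgCl2, 1 mM DTT and 0.01% BSA. Substrates were 5 μM ATP (200 uCi/μmole) and 1 μM poly(Glu)4Tyr, reacted 20 min at 25 °C. Stopped with TCA, and 33P incorporation counted on glass fiber filters.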

[2] = target: T2, Aurora-2 (Homo sapiens, UniProt O14965); assay: Aurora-A (Aurora-2) Inhibition Assay, coupled enzyme assay; type: biochemical; conditions: enzyme inhibition data (Ki), Table 11; read-out: AurA Ki
T2 sequence (O14965 1-403): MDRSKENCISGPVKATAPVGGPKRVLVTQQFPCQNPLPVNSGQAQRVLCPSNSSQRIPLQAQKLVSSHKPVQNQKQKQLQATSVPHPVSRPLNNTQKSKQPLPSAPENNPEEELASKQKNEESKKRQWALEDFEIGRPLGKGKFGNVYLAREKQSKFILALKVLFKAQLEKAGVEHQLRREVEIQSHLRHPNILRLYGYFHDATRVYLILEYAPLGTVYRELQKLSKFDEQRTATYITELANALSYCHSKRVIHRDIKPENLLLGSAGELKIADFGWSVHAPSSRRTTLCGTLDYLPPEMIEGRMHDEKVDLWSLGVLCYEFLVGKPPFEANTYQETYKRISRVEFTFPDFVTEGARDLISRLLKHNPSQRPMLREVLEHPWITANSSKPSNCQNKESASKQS
Method: Compounds are screened for their ability to inhibit Aurora-2 using a standard coupled enzyme assay (Fox et al., Protein Sci., (1998) 7, 2249). Assays are carried out in a mixture of 100 mM Hepes (pH7.5), 10 mM MgCl2, 1 mM DTT, 25 mM NaCl, 2.5 mM phosphoenolpyruvate, 300 μM NADH, 30 μg/ml pyruvate kinase and 10 μg/ml lactate dehydrogenase. Final substrate concentrations in the assay are 400 μM ATP (Sigma Chemicals) and 570 μM peptide (Kemptide, American Peptide, Sunnyvale, Calif.). Assays are carried out at 30° C. and in the presence of 40 nM Aurora-2.
An assay stock buffer solution is prepared containing all of the reagents listed above, with the exception of Aurora-2 and the test compound of interest. 55 μl of the stock solution is placed in a 96 well plate followed by addition of 2 μl of DMSO stock containing serial dilutions of the test compound (typically starting from a final concentration of 7.5 μM). The plate is preincubated for 10 minutes at 30° C. and the reaction initiated by addition of 10 μl of Aurora-2. Initial reaction rates are determined with a Molecular Devices SpectraMax Plus plate reader over a 10 minute time course. IC50 and Ki data are calculated from non-linear regression analysis using the Prism software package (GraphPad Prism version 3.0cx for Macintosh, GraphPad Software, San Diego Calif., USA).

| Structure (SMILES) | pKi [1] | pKi [2] |
| --- | --- | --- |
| Nc1nn2cc(-c3ccc(C(=O)N4CCC[C@H]4CN4CCCC4)cn3)cnc2c1-c1ccccn1 [Compound V-177] | 5.30 to 6.30 | > 6.30 |
| CN(C)CCNc1ccc(-c2cnc3c(-c4ccccn4)c(N)nn3c2)cn1 [Compound V-159] | 5.30 to 6.30 | 5.30 to 6.30 |
| Nc1nn2cc(-c3ccncc3)cnc2c1-c1cc(NC2CCCCC2)ncn1 [Compound V-183] | 5.30 to 6.30 | > 6.30 |
| Nc1nn2cc(-c3cccc(CN4CCOCC4)c3)cnc2c1-c1ccccn1 [Compound V-225] | < 5.30 | 5.30 to 6.30 |
| CC(C)CNc1cc(-c2c(N)nn3cc(-c4ccncc4)cnc23)ncn1 [Compound V-185] | > 6.30 | > 6.30 |
| Nc1nn2cc(-c3ccc(C(=O)NC4CCCO4)cn3)cnc2c1-c1ccccn1 (centres unmarked) [Compound V-96] | < 5.30 | 5.30 to 6.30 |
| CCN(CCC#N)C(=O)c1cccc(-c2cnc3c(-c4ccccn4)c(N)nn3c2)n1 [Compound V-116] | < 5.30 | 5.30 to 6.30 |
| CN(C)Cc1cccc(-c2cnc3c(-c4ccccn4)c(N)nn3c2)c1 [Compound V-215] | < 5.30 | 5.30 to 6.30 |
| Nc1nn2cc(-c3ccc(CNC4CCNCC4)cc3)cnc2c1-c1ccccn1 [Compound V-232] | < 5.30 | 5.30 to 6.30 |
| Cc1cccc(-c2c(N)nn3cc(-c4ccncc4)cnc23)n1 [Compound V-178] | < 5.30 | > 6.30 |
| Cc1cccnc1-c1c(N)nn2cc(-c3ccncc3)cnc12 [Compound V-135] | < 5.30 | 5.30 to 6.30 |
| CNCCN(C)C(=O)c1cccc(-c2cnc3c(-c4ccccn4)c(N)nn3c2)c1 [Compound V-189] | 5.30 to 6.30 | 5.30 to 6.30 |
| Nc1nn2cc(-c3cccc(C(=O)N4CCC(N)CC4)n3)cnc2c1-c1ccccn1 [Compound V-104] | < 5.30 | 5.30 to 6.30 |
| CN(C)CCN(C)C(=O)c1ccc(-c2cnc3c(-c4ccccn4)c(N)nn3c2)cc1 [Compound V-188] | 5.30 to 6.30 | > 6.30 |
| CN(CCCN)C(=O)c1ccc(-c2cnc3c(-c4ccccn4)c(N)nn3c2)nc1 [Compound V-130] | < 5.30 | 5.30 to 6.30 |
| Nc1nn2cc(-c3ccc(CN4CC[C@@H](N)C4)cc3)cnc2c1-c1ccccn1 [Compound V-231] | 5.30 to 6.30 | > 6.30 |
| Nc1nn2cc(-c3ccc(CN4CC[C@H](N)C4)cc3)cnc2c1-c1ccccn1 [Compound V-233] | 5.30 to 6.30 | > 6.30 |

| Structure (SMILES) | pKi [1] | pKi [2] |
| --- | --- | --- |
| NCc1ccc(-c2cnc3c(-c4ccccn4)c(N)nn3c2)cc1 [Compound V-195] | 5.30 to 6.30 | > 6.30 |
| Nc1nn2cc(-c3ccc(N4CCC[C@H]4CN4CCCC4)nc3)cnc2c1-c1ccccn1 [Compound V-152] | < 5.30 | 5.30 to 6.30 |
| CCN(CC)CCN(C)c1ccc(-c2cnc3c(-c4ccccn4)c(N)nn3c2)cn1 [Compound V-173] | 5.30 to 6.30 | 5.30 to 6.30 |
| COCCCN1CCN(C(=O)c2ccc(-c3cnc4c(-c5ccccn5)c(N)nn4c3)nc2)CC1 [Compound V-129] | 5.30 to 6.30 | > 6.30 |
| NC1NN2C=C(c3cccc(CN4CCCNCC4)c3)C=NC2=C1c1ccccn1 (centres unmarked) [Compound V-228] | < 5.30 | 5.30 to 6.30 |
| NC1CCN(Cc2cccc(C3=CN4NC(N)C(c5ccccn5)=C4N=C3)c2)CC1 (centres unmarked) [Compound V-229] | < 5.30 | 5.30 to 6.30 |
| Nc1nn2cc(-c3ccc(N4CCC(N)CC4)nc3)cnc2c1-c1ccccn1 [Compound V-165] | < 5.30 | > 6.30 |
| CCCN(CC)c1cc(-c2c(N)nn3cc(-c4ccncc4)cnc23)ncn1 [Compound V-244] | > 6.30 | > 6.30 |
| Nc1nn2cc(-c3cccc(C(=O)N4CCCC4CO)n3)cnc2c1-c1ccccn1 (centres unmarked) [Compound V-112] | < 5.30 | 5.30 to 6.30 |
| CCN(CC)C(=O)c1ccc(-c2cnc3c(-c4ccccn4)c(N)nn3c2)nc1 [Compound V-98] | 5.30 to 6.30 | > 6.30 |
| CN(CCC#N)C(=O)c1cccc(-c2cnc3c(-c4ccccn4)c(N)nn3c2)n1 [Compound V-114] | < 5.30 | 5.30 to 6.30 |
| CN(CCCN)C(=O)c1cccc(-c2cnc3c(-c4ccccn4)c(N)nn3c2)n1 [Compound V-155] | 5.30 to 6.30 | 5.30 to 6.30 |
| NC1NN2C=C(c3cccc(CN4CC[C@H](N)C4)c3)C=NC2=C1c1ccccn1 (some centres unmarked) [Compound V-227] | < 5.30 | 5.30 to 6.30 |
| CN1CCC(N(C)C(=O)c2cccc(-c3cnc4c(-c5ccccn5)c(N)nn4c3)n2)CC1 [Compound V-101] | < 5.30 | 5.30 to 6.30 |
| COc1ccccc1-c1cnc2c(-c3ccccn3)c(N)nn2c1 [Compound V-14] | < 5.30 | 5.30 to 6.30 |
| Cc1ccnc(-c2c(N)nn3cc(-c4ccncc4)cnc23)c1 [Compound V-133] | 5.30 to 6.30 | > 6.30 |
| Nc1nn2cc(-c3ccncc3)cnc2c1-c1cc(N2CCCCC2)ncn1 [Compound V-179] | > 6.30 | > 6.30 |
